Source: US20250090510A1, “eIF4G1-eIF1 INHIBITORS AND USE THEREOF” (YEDA RESEARCH AND DEVELOPMENT CO. LTD., priority 2022, published 2025)

Tested on: HEK293T cells
Assay: Ribo-seq and TI-seq translation efficiency analysis
Format: cell-based, human
Conditions: i14G1-10 20 μM, i14G1-12 10 μM; 3 h
Method: FIGS. 4A-L: The effect eIF1-eIF4G1 inhibition by i14G1-10 or i14G1-12 on global translation is linked to start codon stringency. (4A) HEK293T cells were treated with DMSO, i14G1-10 (20 μM), and […] (10 μM) for 3 h and then ribosome foot printing libraries were prepared, sequenced and analyzed as described in the scheme. The presented graphs show meta-gene analysis of the distribution of normalized reads in the coding region (CDS) and 5′UTR of all analyzed genes in DMSO (black), i14G1-10 (blue), and i14G1-12 (red). (4B) Summary of the number of genes whose ribosomal occupancy was affected (fold change, […]) or unaffected in coding regions (CDS) (left) and 5′UTR (right) in i14G1-10 or i14G1-12 samples. […] (4E) Analysis of the nucleotide context of the annotated start codon of i14G1-10 and i14G1-12 differentially translated mRNAs using the STREME motif discovery algorithm. (4F) The translation efficiency of eIF1 in DMSO, i14G1-10 and i14G1-12 samples calculated from the Ribo-seq data. The weak AUG context of eIF1 is shown above. […] (4I) HEK293T cells were transfected with a firefly luciferase reporter gene driven by either by AUG or near cognate start codon, i.e., ACG, CUG, GUG, and UUG. The Renilla luciferase reporter gene was also co-transfected and served as a normalizing control. The near cognate start codon activities in DMSO control and i14G1-10 and i14G1-12 treated cells are presented as a percentage of AUG activity. The data are shown as mean±SEM, n=5. the asterisks denote statistically significant difference compared to DMSO, according to Student's t-tests (one-tailed, paired). *p<0.05; **p<0.01. (4J) Scatter plots showing the translation efficiencies correlations (R2 >0.9) of all analyzed genes between the two independent replicate experiments with DMSO (vehicle control) (top), i14G1-10 (middle), and i14G1-12 (bottom). (4K) Scatter plots showing the translation efficiencies correlations between 5′UTR and CDS (Pearson's r >0.5) of all analyzed genes of two independent replicate experiments with i14G1-10 (left) and i14G1-12 (right).
Ribo-seq and TI-seq. HEK293T cells were grown in 10 cm culture dish until 80% confluence, and treated with DMSO, i14G1-10 ([…]), and i14G1-12 (10 μM). After 3 h, for TI-seq, cells were treated with 2 μg/ml harringtonine (Hrr) for 2 minutes followed by the addition of 100 μg/ml cycloheximide (CHX) for 5 minutes. For Ribo-seq cells were treated with 100 μg/ml cycloheximide (CHX) for 5 minutes. Thereafter, cells were lysed in polysome buffer. For both TI-seq and Ribo-seq, ribosome fractions were isolated using sucrose density centrifugation followed by Rnase I digestion. The total RNA was isolated using tri-reagent and used for high-throughput library preparation as described (Ingolia et al. 2012). The libraries were sequenced on the HiSeq2500 High-Output instrument (Illumina) for SR-60.
RNA-seq libraries. Total RNA was isolated from the lysates used for TI-seq and Ribo-seq, using Bio Tri RNA reagent. Total RNA was then cleaned up using Oligo d(T)25 Magnetic Beads (NEB 514195) to isolate mRNA. RNA-seq libraries prepared using a derivation of MARS-seq, produce expression libraries with two replicates of each treatment. ˜25 ng RNA was taken for first Reverse transcription reaction using Illumina barcoded RT1 primer. Resultant barcoded cDNA samples were subsequently pooled according to Ct values of Housekeeping gene (GAPDH) (Quality control 1). Pooled cDNA was treated with Exonuclease I to remove excess primers followed by Second strand synthesis using NEB SSS module enzyme mix. After that, in vitro transcription was performed using NEB T7 RNA Pol mix to generate RNA which was fragmented and ligated to an adaptor consisting RD2 using T4 RNA ligase I (NEB) followed by a second Reverse transcription reaction. The library was amplified using Kappa Hifi ready mix. The RNA libraries were sequenced using a high-throughput 75 bp kit (Illumina FC404-2005) on NEXTseq 500 sequencer. […]

| Structure (SMILES) | ATF4 main ORF translation | number of genes with translational downregulation of CDS (≥1.7 fold) [genes] | number of genes with translational upregulation of CDS [genes] | number of genes with upregulated 5′UTR translation [genes] | translation efficiency of endogenous eIF1 |
| --- | --- | --- | --- | --- | --- |
| O=C(/C=C/Sc1ccc(C(F)(F)F)cn1)c1ccccc1 [i14G1-10] | upregulated | 320 | 255 | 806 | upregulated |
| Cn1ccnc1S/C(=C/C=C(C#N)C#N)c1ccc(Cl)cc1 [i14G1-12] | upregulated | 874 | 547 | 1207 | upregulated |
